This is an account of results in US11247973B2 (The University of Durham, priority 2016, dated 2022).

One series is described as follows: MTT cell toxicity assay. In kind it is cell-based. To be noted: African green monkey, Vero cells. As for the experimental part: Vero cells were seeded in 96-well plates in a volume of 100 μL Optimem media supplemented with 1% FBS at a concentration of 1×10^4 cells per well. After an overnight incubation at 37° C. in a humidified 5% CO2 atmosphere, the monolayer of cells should be approximately 90% confluent. Compound 2 was titrated in pre-warmed Serum Free (SF) Optimem in a U-bottom 96 well plate. For compounds in a DMSO solution, titration in 100% DMSO was performed first and each concentration added individually to a 2× final concentration at 4% DMSO. Media was then removed from cells and replaced with titrated compounds (100 μl/well). Cells were incubated at 37° C. in a humidified 5% CO2 atmosphere for 48 hours.
The MTT solution on Optimem (4 mg/ml) was prepared and 2 ul added to each well before it was incubated for 2 hours at 37° C. in a humidified 5% CO2 atmosphere. Media was then removed from the cells and DMSO added (50 ul/well). Plates were placed on a shaker prior to reading in a Spectromax at 570 nm. Data was normalised relative to untreated controls (1% DMSO only) and CC50 values determined using non-linear regression analysis with Graphpad Prism software.

Another series has as its system RSV. Description: Cytopathic effect (CPE) assay. In kind it is cell-based. To be noted: human respiratory syncytial virus; A549 cells and HeLa cells, 6-8 days, DMEM+2% FCS; read-out: CPE IC50. An excerpt:
Cells were obtained from ATCC and the virus preparation was subjected to one round of centrifugation through a 40% (V/V) glycerol to remove any interferon produced from infected cells. Growth medium was Dulbecco's modified Eagle's medium (DMEM) with 10% (v/v) foetal calf serum (FCS), Viral maintainance medium was DMEM+2% (v/v) FCS.
Cytopathic Effect (CPE) Assay—IC50:
A549 cells and HeLa cells were used to seed a set of 96 well plates grown until 50% confluent, a 2 fold serial dilution of the compound was performed on each cell line with DMSO (only) as control starting with 100 μM of the compound. Medium used was DMEM+2% FCS (normal medium for viral growth).
Cells were allowed to grow for 6-8 days to mimic a TCID50 assay after which cell viability was determined by adding Almar blur (similar to XT) and reading at 600 nm (excitation 540 nm).

In the case of `O=C(CNc1c(F)c(F)nc(F)c1F)N[C@H]1N=C(c2ccccc2)c2ccccc2NC1=O` [Compound 2], in the series “MTT cell toxicity assay”, the CC50 (commonly the concentration that lowers cell viability or growth by half) at 48 h was determined as 63 µM. Also, the IC50 (in general, the midpoint of a concentration-inhibition curve) in the series on RSV stood at 0.625 µM.
